Data taken from paper PMC10017027, “Design and Synthesis of Novel HIV-1 NNRTIs with Bicyclic Cores and with Improved Physicochemical Properties” (Journal of Medicinal Chemistry, 2023).
Values after ≈ are worked out from the molar mass of the structure shown. Like-named read-outs stand apart in the source and are kept apart here.

Columns and labels:
HIV-1 (IIIB strain) = test: MT-4 antiviral cytopathic effect assay, HIV-1 IIIB; assay type: cell-based; conditions: HIV-1 IIIB, WT, read-out: EC50 MT4
Method: (§1) The prepared compounds were tested for their anti-HIV-1 activity (Table 1). A viral cytopathic effect assay in MT-4 cells with HIV-1 IIIB virus was used to determine compound potency (EC50, 50% cell viability) in protecting virus induced cell killing. Compound cytotoxicity was assessed in MT-4 cells in the absence of virus (CC50, 50% cytotoxicity).
(§2) Compounds were tested in a high-throughput 384-well assay format for their ability to inhibit the virus replication-induced cytopathic effect in MT-4 cell cultures acutely infected with HIV-1 (IIIB strain), HXB2, HXB2-K103N, and HXB2-Y181C. Compounds were serially diluted (1:3) in DMSO on 384-well polypropylene plates and further diluted 200-fold into complete RPMI media (10% FBS, 1% P/S) using Biotek Micro Flow and an Agilent ECHO acoustic dispenser. Each plate contained up to eight test compounds, with negative (no drug control) and 5 μM AZT positive controls. MT-4 cells were further diluted in complete RPMI media and added to each plate using a Micro-Flo dispenser. After five days of incubation in a humidified and temperature-controlled incubator (37 °C), Cell Titer Glo (Promega) was added to the assay plates to quantify the amount of […]. EC50 and CC50 values were defined as the compound concentration that causes a 50% decrease in luminescence signal and were calculated using a sigmoidal dose-response model to generate curve fits.

in vitro = assay type: cell-based; conditions: human
Method: (§3) The prepared compounds were tested for their anti-HIV-1 activity (Table 1). A viral cytopathic effect assay in MT-4 cells with HIV-1 IIIB virus was used to determine compound potency (EC50, 50% cell viability) in protecting virus induced cell killing. Compound cytotoxicity was assessed in MT-4 cells in the absence of virus (CC50, 50% cytotoxicity). […] ETV contains bromo and amino substitutions on the DAPY core. […] Likely, with the smaller cyano arm I in 1, 3, and 5, the cores could be further elaborated to optimize the compound position in the pocket and to improve potency.
as §2

HIV-1 HXB2 = test: MT-4 antiviral cytopathic effect assay, HXB2 wild-type virus; assay type: cell-based; conditions: Human immunodeficiency virus 1, MT4; HIV-1 HXB2 wild-type, MT-4 cells; read-out: EC50 HXB2
Method: as §1, §2

HIV-1 HXB2 K103N variant = test: MT-4 antiviral cytopathic effect assay, HXB2-K103N; assay type: cell-based; conditions: for EC50: Human immunodeficiency virus 1, HXB2, read-out: EC50 K103N
Method: as §3, §2

HIV-1 HXB2 Y181C variant = test: MT-4 antiviral cytopathic effect assay, HXB2-Y181C; assay type: cell-based; conditions: for EC50: Human immunodeficiency virus 1, HXB2, read-out: EC50 Y181C
Method: as §3, §2

[1] = Solubility assessment, shake-flask method; assay type: physicochemical; conditions: for solubility: shake-flask; for HCl sol / PBS sol: supplement CSV
Method: Compound solubility was measured at Analiza (Cleveland, OH) by the standard shake-flask method at pH 1.2 and 7.4 and quantitated by HPLC-UV.

[2] = MDCK permeability assay (A to B); assay type: in vitro ADME, Canine; conditions: dog, MDCK
From the text: Compounds were further tested in a Madin–Darby Canine Kidney (MDCK) assay to evaluate their potential for oral absorption. […] Additionally, there was no trend for better permeability when comparing arm I versus arm II when matched with the same core. The size of the B ring had the greatest influence on Papp with the trend being five-membered > six-membered > seven-membered rings (Table 1).
cMdr1-KO cells were maintained in Dulbecco’s modified Eagle’s medium (DMEM) with sodium pyruvate and GlutaMax, supplemented with 1% Pen/Strep and 10% fetal bovine serum in an incubator set at 37 °C, 90% humidity, and 5% CO2. MDCKII- cMdr1-KO cells were grown to confluence over 3 days on 96-well PET plates with 1 μm pore size, polyester membrane (Corning 3392). Experiments were run using HBSS donor buffer from Invitrogen containing an additional 10 mM HEPES, 15 mM glucose, and 0.1% BSA adjusted to pH 7.4. The receiver well had HBSS buffer supplemented with 1% BSA, 10 mM HEPES, 15 mM glucose, and the pH was adjusted to 7.4. TEER values were read to test membrane integrity at the beginning of the assay. The experiment was started by the addition of dosing solutions containing test compounds. Samples were taken from the donor compartment at 0/120 min and from the receiver compartment at 120 min. Each compound was tested in two separate replicate wells. All samples were immediately collected in a 72:8:20 MeCN/MeOH:H2O mix to precipitate protein and stabilize the test compounds. Cells were dosed on the apical side to determine forward (A to B) permeability. To test for non-specific binding and compound instability, the total amount of drug was quantified at the end of the experiment and compared to the material present in the original dosing solution as a percentage of recovery. Samples were analyzed by RF-QToF.

[3] = Predicted clearance in human liver microsomes; assay type: in vitro ADME; conditions: pH 7.4, 1 μM compound, read-out: HLM CLint, pred (converted)
Method: Next, microsome stability was profiled in purified human liver microsomes (HLM).
Metabolic stability of compounds was assessed using HLM (Corning cat. 457117).[52] In this assay, 10 nL compounds at a concentration of 1 mM in 100% DMSO are dispensed into 384-well polypropylene plates using the Echo 550 acoustic liquid dispenser (Labcyte). Each plate contains 384 wells with a single test compound in each well.
A solution of HLM at 2 mg/mL in 100 mM K2HPO4/KH2PO4 pH 7.4 with 0.0225 mg/mL Alamethicin from Trichoderma viride (Sigma-Aldrich cat. A4665-10MG) was incubated on ice for 15 min. 5 μL of this solution was added to individual wells following 15 min incubation at room temperature; and supplemented with 5 μL NADPH Regenerating Solution of cofactors (Corning Gentest UGT Reaction Mix solutions A and B, cat. 451200 and 451220) containing 100 mM K2HPO4/KH2PO4 pH 7.4, 2.6 mM NADP^+, 6.6 mM glucose-6-phosphate, 6.6 mM MgCl2, 0.8 U/mL glucose-6-phosphate dehydrogenase, 0.1 mM sodium citrate, and 6.8 mM uridine diphosphate-glucuronic acid. The final concentration of analyte compounds at the beginning of the reactions was 1 μM. The reactions were incubated at 37 °C, and time points of 0, 5, 15, 30, 40, 50, 60, and 70 min were collected for further analysis. Background data were collected using reactions without analyte compounds.
Upon collection of the reaction time points, samples were quenched at the set time points with 30 μL of a solution of 72% acetonitrile, 8% methanol, 0.1% formic acid, 19.9% water, and labetalol as an internal standard (IS) at a concentration of 650 nM. Reaction plates were span in a centrifuge at a speed of 4000 rcf for 30 min and 4 °C, following a dilution of the 10 μL quenched reaction into 40 μL de-ionized water, yielding assay plates.
Samples were analyzed by a solid-phase extraction coupled with a quadrupole time-of-flight mass spectrometer, using an Agilent QToF 6530 RapidFire 360 system with C4 type A solid state cartridges. Analysis was performed in either positive or negative ionization modes. Mobile phases contained 0.1% formic acid in water for loading analytes onto solid state extraction cartridges, and 0.1% formic acid in acetonitrile for elution into the mass spectrometer in positive ionization mode, or 0.1% acetic acid in water for loading and 0.1% acetic acid in acetonitrile for extraction in negative ionization mode. Peak-area ratios of integrated counts for individual compounds to IS were plotted as a semi-logarithmic chart of log versus time. Initial, linear portion of decay was fitted to a linear regression equation to derive the half-time of a compound decay.
Pharmacological parameters for an analyte compound metabolism were calculated using the equations described in Table S2.
Table S2. Pharmacological parameters for an analyte compound metabolism were
calculated using the following equations:
Intrinsic Clearance (in Cl = ln 2
int, in vitro T1/2 ∗ Conc
Intrinsic Clearance Cl = Clint, in vitro ∗ Liver Mass ∗ Yield
Predicted Hepatic Cl = Clint ∗ QH
QH (Hepatic Blood Flow) = 1.3 L/hr/kg

[4] = Human immunodeficiency virus 1, IIIB, MT4, protects 50% of MT-4 cells against HIV-1-induced cell killing
[5] = fold change: ratio of potency against HXB2 K103N and parental HXB2
[6] = supplement CSV, fold change vs HXB2
[7] = fold change: ratio of potency against HXB2 Y181C and parental HXB2
[8] = HCl, pH 1.2, read-out: solubility HCl
[9] = phosphate-buffered saline, pH 7.4, read-out: solubility PBS
[10] = apparent permeability coefficient, A to B, pH 7.4

| Compound | EC50 (HIV-1 (IIIB strain); [4]) [nM] | EC50 (HIV-1 (IIIB strain); protects 50% of MT-4 cells against HIV-1-induced cell killing) [nM] | CC50 at 120 h (in vitro) [nM] | EC50 (HIV-1 HXB2) [nM] | EC50 (HIV-1 HXB2 K103N variant) [nM] | K103N (FC) (HIV-1 HXB2 K103N variant; [5]) | K103N (FC) (HIV-1 HXB2 K103N variant; [6]) | EC50 (HIV-1 HXB2 Y181C variant) [nM] | Y181C (FC) (HIV-1 HXB2 Y181C variant; [7]) | Y181C (FC) (HIV-1 HXB2 Y181C variant; [6]) | solubility [1, 8] [µM] | solubility [1, 9] [µM] | HCl sol [1] [µM] | PBS sol [1] [µM] | Papp A→B at 120 min ([2]; supplement CSV) [×10⁻⁶ cm/s] | Papp A→B at 120 min [2, 10] [×10⁻⁶ cm/s] | CLint scaled at 1.167 h, 1 µM [3] [mL/min/kg] | CC50 at 5 days (in vitro) [nM] |
| --- | --- | --- | --- | --- | --- | --- | --- | --- | --- | --- | --- | --- | --- | --- | --- | --- | --- | --- |
| Cc1cc(/C=C/C#N)cc(C)c1N1CCC(=O)Nc2cnc(Nc3ccc(C#N)cc3)nc21 [Compound 6, 4-[(9-{4-[(1E)-2-Cyanoeth-1-en-1-yl]-2,6-dimethylphenyl}-6-oxo-5H,6H,7H,8H,9H-pyrimido[4,5-b][1,4]diazepin-2-yl)amino]benzonitrile] | 2.6 to 3 | 3 | 25800 | 2.8 | 4.8 | 1.7 | 1.7 | 18.3 | 6.5 | 6.5 | 63.3 (≈ 27.6 µg/mL) | 2.3 (≈ 1 µg/mL) | 63.3 | 2.3 | 3.1 | 3.1 | 12 | – |
| Cc1cc(/C=C/C#N)cc(C)c1-n1c(=O)[nH]c2cnc(Nc3ccc(C#N)cc3)nc21 [Compound 2, 4-[(9-{4-[(1E)-2-Cyanoeth-1-en-1-yl]-2,6-dimethylphenyl}-8-oxo-8,9-dihydro-7H-purin-2-yl)amino]benzonitrile] | 2.5 | – | 23300 | 2.2 | 4.5 | 2.0 | 2.0 | 10.6 | 4.8 | 4.8 | 61.2 (≈ 24.9 µg/mL) | 10.4 (≈ 4.24 µg/mL) | 61.2 | 10.4 | 5.6 | 5.6 | 16.7 | – |
| Cc1cc(C#N)cc(C)c1-n1c(=O)[nH]c2cnc(Nc3ccc(C#N)cc3)nc21 [Compound 1, 4-{2-[(4-Cyanophenyl)amino]-8-oxo-8,9-dihydro-7H-purin-9-yl}-3,5-dimethylbenzonitrile] | 62.3 | – | 43700 | 73.7 | 230 | 3.1 | 3.1 | 241 | 3.3 | 3.3 | 73.2 (≈ 27.9 µg/mL) | 6.6 (≈ 2.52 µg/mL) | 73.2 | 6.6 | 4.9 | 4.9 | 8.83 | – |
| Cc1cc(C#N)cc(C)c1N1CCC(=O)Nc2cnc(Nc3ccc(C#N)cc3)nc21 [Compound 5, 4-{2-[(4-Cyanophenyl)amino]-6-oxo-5H,6H,7H,8H,9H-pyrimido[4,5-b][1,4]diazepin-9-yl}-3,5-dimethylbenzonitrile] | 43.4 | – | – | 29.4 | 70.7 | 2.4 | 2.4 | 198 | 6.7 | 6.7 | 87.3 (≈ 35.7 µg/mL) | 1.4 (≈ 0.573 µg/mL) | 87.3 | 1.4 | 3.5 | 3.5 | 15.5 | > 50000 |
